# Measurements taken from ChEMBL document CHEMBL4376839, “Structure-Based Optimization of Coumarin hA3 Adenosine Receptor Antagonists” (J Med Chem, 2020).
# pIC50, pKi: −log10 of the molar value.
# Target: T1, Adenosine receptor A2b (Homo sapiens, UniProt P29275)
# T1 sequence (P29275 whole entry): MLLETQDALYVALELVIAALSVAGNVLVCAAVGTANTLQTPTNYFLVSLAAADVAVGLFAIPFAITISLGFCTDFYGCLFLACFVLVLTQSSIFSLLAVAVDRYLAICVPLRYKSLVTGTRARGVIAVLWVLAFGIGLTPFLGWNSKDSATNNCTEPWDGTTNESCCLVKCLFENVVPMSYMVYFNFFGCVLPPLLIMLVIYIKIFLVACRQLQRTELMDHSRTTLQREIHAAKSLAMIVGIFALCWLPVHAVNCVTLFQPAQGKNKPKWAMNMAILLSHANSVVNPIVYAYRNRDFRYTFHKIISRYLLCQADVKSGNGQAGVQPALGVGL
# Assay: Antagonist activity at human adenosine receptor A2B expressed in CHO cells assessed as inhibition of NECA-stimulated adenylyl cyclase activity
row,pIC50,SMILES
1,< 4.52,O=c1oc2c(O)cccc2cc1-c1ccc(Br)cc1
2,< 4.52,Cc1cccc2cc(-c3ccccc3)c(=O)oc12
3,< 4.52,O=c1oc2c(O)c(O)ccc2cc1-c1ccccc1
4,< 4.52,Cc1ccc(-c2cc3cccc(C)c3oc2=O)cc1
5,< 4.52,O=c1oc2c(O)c(O)ccc2cc1-c1ccc(O)c(O)c1
6,< 4.52,O=c1oc2c(O)cccc2cc1-c1ccccc1

# Further lines, the molecule ahead of its results:
row,SMILES,pIC50
1,CCOc1cccc2cc(-c3ccc(Br)cc3)c(=O)oc12,< 4.52
2,CC(=O)Oc1ccc(-c2cc3ccc(OC(C)=O)c(OC(C)=O)c3oc2=O)cc1OC(C)=O,< 4.52
3,CCOc1cccc2cc(-c3ccc(OC)cc3)c(=O)oc12,< 4.52
4,Cc1cccc2cc(-c3cc(O)c(O)c(O)c3)c(=O)oc12,< 4.52
5,CC(=O)Oc1ccc(-c2cc3ccc(OC(C)=O)c(OC(C)=O)c3oc2=O)cc1,< 4.52
6,CCOc1cccc2cc(-c3cc(OC)c(OC)c(OC)c3)c(=O)oc12,< 4.52

# Target: T2, Adenosine receptor A3 (Homo sapiens, UniProt P0DMS8)
# T2 sequence (P0DMS8 whole entry): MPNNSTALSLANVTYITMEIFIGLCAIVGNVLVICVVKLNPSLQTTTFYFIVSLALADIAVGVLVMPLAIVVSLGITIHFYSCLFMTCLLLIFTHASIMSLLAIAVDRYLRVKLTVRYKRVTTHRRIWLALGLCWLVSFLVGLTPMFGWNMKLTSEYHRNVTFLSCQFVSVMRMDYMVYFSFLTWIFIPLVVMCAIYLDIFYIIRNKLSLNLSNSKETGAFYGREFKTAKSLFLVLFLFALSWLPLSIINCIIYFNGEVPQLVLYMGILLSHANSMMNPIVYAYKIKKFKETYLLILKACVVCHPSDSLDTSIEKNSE
# Assay: Displacement of [3H]HEMADO from human adenosine receptor A3 expressed in CHO cell membranes by radioligand competition assay
row,pKi,SMILES
1,4.77,Cc1cccc2cc(-c3ccccc3)c(=O)oc12
2,5.41,O=c1oc2c(O)c(O)ccc2cc1-c1ccccc1
3,4.78,Cc1ccc(-c2cc3cccc(C)c3oc2=O)cc1
4,5.07,O=c1oc2c(O)c(O)ccc2cc1-c1ccc(O)c(O)c1
5,5.29,O=c1oc2c(O)cccc2cc1-c1ccccc1
6,5.15,CC(=O)COc1cccc2cc(-c3ccccc3)c(=O)oc12

# The next lines start with the molecule.
row,SMILES,pKi
1,CC(=O)COc1cccc2cc(-c3ccc(Br)cc3)c(=O)oc12,< 4.52
2,CC(=O)COc1cccc2cc(-c3ccc(C)cc3)c(=O)oc12,6.20
3,CCOc1cccc2cc(-c3ccc(Br)cc3)c(=O)oc12,< 4.00
4,CC(=O)Oc1ccc(-c2cc3ccc(OC(C)=O)c(OC(C)=O)c3oc2=O)cc1OC(C)=O,4.63
5,CCOc1cccc2cc(-c3ccc(OC)cc3)c(=O)oc12,5.27
6,Cc1cccc2cc(-c3cc(O)c(O)c(O)c3)c(=O)oc12,4.84
7,CC(=O)Oc1ccc(-c2cc3ccc(OC(C)=O)c(OC(C)=O)c3oc2=O)cc1,5.21
8,CCOc1cccc2cc(-c3cc(OC)c(OC)c(OC)c3)c(=O)oc12,5.04

# Target: T3, Adenosine receptor A1 (Homo sapiens, UniProt P30542)
# T3 sequence (P30542 whole entry): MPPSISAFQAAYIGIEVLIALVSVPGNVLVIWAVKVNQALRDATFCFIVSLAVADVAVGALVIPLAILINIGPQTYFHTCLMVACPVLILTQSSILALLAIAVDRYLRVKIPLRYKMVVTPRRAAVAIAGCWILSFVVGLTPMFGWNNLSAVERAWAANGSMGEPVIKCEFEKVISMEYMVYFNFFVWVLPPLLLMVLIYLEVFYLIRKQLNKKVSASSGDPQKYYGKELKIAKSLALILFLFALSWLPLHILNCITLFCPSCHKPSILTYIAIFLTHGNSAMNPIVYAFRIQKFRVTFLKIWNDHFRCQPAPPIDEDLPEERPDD
# Assay: Displacement of [3H]CCPA from human adenosine receptor A1 expressed in CHO cell membranes by radioligand competition assay
row,pKi,SMILES
1,< 4.00,O=c1oc2c(O)cccc2cc1-c1ccc(Br)cc1
2,4.83,Cc1cccc2cc(-c3ccccc3)c(=O)oc12
3,5.62,O=c1oc2c(O)c(O)ccc2cc1-c1ccccc1
4,< 4.00,Cc1ccc(-c2cc3cccc(C)c3oc2=O)cc1
5,5.20,O=c1oc2c(O)c(O)ccc2cc1-c1ccc(O)c(O)c1
6,5.34,O=c1oc2c(O)cccc2cc1-c1ccccc1
7,4.98,CC(=O)COc1cccc2cc(-c3ccccc3)c(=O)oc12

# The next lines start with the molecule.
row,SMILES,pKi
1,CC(=O)COc1cccc2cc(-c3ccc(Br)cc3)c(=O)oc12,< 4.00
2,CC(=O)COc1cccc2cc(-c3ccc(C)cc3)c(=O)oc12,< 4.00
3,CCOc1cccc2cc(-c3ccc(Br)cc3)c(=O)oc12,< 4.00
4,CC(=O)Oc1ccc(-c2cc3ccc(OC(C)=O)c(OC(C)=O)c3oc2=O)cc1OC(C)=O,< 4.00
5,CCOc1cccc2cc(-c3ccc(OC)cc3)c(=O)oc12,< 4.00
6,Cc1cccc2cc(-c3cc(O)c(O)c(O)c3)c(=O)oc12,4.83
7,CC(=O)Oc1ccc(-c2cc3ccc(OC(C)=O)c(OC(C)=O)c3oc2=O)cc1,< 4.00
8,CCOc1cccc2cc(-c3cc(OC)c(OC)c(OC)c3)c(=O)oc12,< 4.00

# Target: T1, Adenosine receptor A2b
# Assay: Antagonist activity at human adenosine receptor A2B expressed in CHO cells assessed as inhibition of NECA-stimulated adenylyl cyclase activity
# Remark: another data set of the same source
row,pKi,SMILES
1,< 4.52,O=c1oc2c(O)cccc2cc1-c1ccc(Br)cc1
2,< 4.52,Cc1cccc2cc(-c3ccccc3)c(=O)oc12
3,< 4.52,O=c1oc2c(O)c(O)ccc2cc1-c1ccccc1
4,< 4.52,Cc1ccc(-c2cc3cccc(C)c3oc2=O)cc1
5,< 4.52,O=c1oc2c(O)c(O)ccc2cc1-c1ccc(O)c(O)c1
6,< 4.52,O=c1oc2c(O)cccc2cc1-c1ccccc1
7,< 4.52,CC(=O)COc1cccc2cc(-c3ccccc3)c(=O)oc12

# Continued, molecule first:
row,SMILES,pKi
1,CC(=O)COc1cccc2cc(-c3ccc(Br)cc3)c(=O)oc12,< 4.52
2,CC(=O)COc1cccc2cc(-c3ccc(C)cc3)c(=O)oc12,< 4.52
3,CCOc1cccc2cc(-c3ccc(Br)cc3)c(=O)oc12,< 4.52
4,CC(=O)Oc1ccc(-c2cc3ccc(OC(C)=O)c(OC(C)=O)c3oc2=O)cc1OC(C)=O,< 4.52
5,CCOc1cccc2cc(-c3ccc(OC)cc3)c(=O)oc12,< 4.52
6,Cc1cccc2cc(-c3cc(O)c(O)c(O)c3)c(=O)oc12,< 4.52
7,CC(=O)Oc1ccc(-c2cc3ccc(OC(C)=O)c(OC(C)=O)c3oc2=O)cc1,< 4.52
8,CCOc1cccc2cc(-c3cc(OC)c(OC)c(OC)c3)c(=O)oc12,< 4.52

# Target: Adenosine receptor A2a (Homo sapiens, UniProt P29274)
# Assay: Displacement of [3H]NECA from human adenosine receptor A2A expressed in CHO cell membranes by radioligand competition assay
# Adenosine receptor A2a, sequence (P29274 whole entry): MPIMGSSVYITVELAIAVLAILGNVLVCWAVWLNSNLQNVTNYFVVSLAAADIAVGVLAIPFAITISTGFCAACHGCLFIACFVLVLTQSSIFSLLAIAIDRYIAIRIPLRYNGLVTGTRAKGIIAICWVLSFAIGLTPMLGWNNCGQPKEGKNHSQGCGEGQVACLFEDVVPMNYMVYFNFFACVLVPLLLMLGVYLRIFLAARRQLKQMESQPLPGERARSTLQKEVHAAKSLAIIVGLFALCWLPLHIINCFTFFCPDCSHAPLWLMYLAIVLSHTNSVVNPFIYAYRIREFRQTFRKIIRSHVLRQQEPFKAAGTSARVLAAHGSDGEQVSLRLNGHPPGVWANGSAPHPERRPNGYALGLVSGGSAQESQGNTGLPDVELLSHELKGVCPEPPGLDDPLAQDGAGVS
row,pKi,SMILES
1,< 4.00,O=c1oc2c(O)cccc2cc1-c1ccc(Br)cc1
2,4.38,Cc1cccc2cc(-c3ccccc3)c(=O)oc12
3,4.92,O=c1oc2c(O)c(O)ccc2cc1-c1ccccc1
4,< 4.00,Cc1ccc(-c2cc3cccc(C)c3oc2=O)cc1
5,4.59,O=c1oc2c(O)c(O)ccc2cc1-c1ccc(O)c(O)c1
6,4.37,O=c1oc2c(O)cccc2cc1-c1ccccc1
7,4.79,CC(=O)COc1cccc2cc(-c3ccccc3)c(=O)oc12

# Further lines, the molecule ahead of its results:
row,SMILES,pKi
1,CC(=O)COc1cccc2cc(-c3ccc(Br)cc3)c(=O)oc12,< 4.00
2,CC(=O)COc1cccc2cc(-c3ccc(C)cc3)c(=O)oc12,< 4.00
3,CCOc1cccc2cc(-c3ccc(Br)cc3)c(=O)oc12,< 4.00
4,CC(=O)Oc1ccc(-c2cc3ccc(OC(C)=O)c(OC(C)=O)c3oc2=O)cc1OC(C)=O,< 4.00
5,CCOc1cccc2cc(-c3ccc(OC)cc3)c(=O)oc12,< 4.00
6,Cc1cccc2cc(-c3cc(O)c(O)c(O)c3)c(=O)oc12,< 4.00
7,CC(=O)Oc1ccc(-c2cc3ccc(OC(C)=O)c(OC(C)=O)c3oc2=O)cc1,< 4.00
8,CCOc1cccc2cc(-c3cc(OC)c(OC)c(OC)c3)c(=O)oc12,< 4.00

# Target: T2, Adenosine receptor A3
# Assay: Antagonist activity at human adenosine receptor A3 expressed in CHO cells assessed as suppression of NECA-induced decrease of cAMP accumulation by Glo-sensor cAMP assay
# Type: functional, cell-based
row,pIC50,SMILES
1,4.53,CCOc1cccc2cc(-c3ccc(OC)cc3)c(=O)oc12
